Measured values published in PubChem BioAssay AID248 (DTP/NCI, 2004).
Inconclusive results and toxic doses are left out. No stated cut-off is given here; in the data, active means T/C of 150% or more; inactive means T/C below 125%. Numbered stars: 1 amine (or outer) side, 2 acyl side, 3 side chain; on linkers, the order of the positions; unused ones are H or OH. Bridge positions count the residues as written; N and C are the ends. Square brackets hold non-standard residues; d marks the D form. Peptide text beside a SMILES is read from it. I, II: the chains in the order shown. Actinocin(1to9) = Cc1c2oc3c(C)ccc(C(=O)[*:2])c3nc-2c(C(=O)[*:1])c(N)c1=O; NMeV = CN[CH](C(=O)O)C(C)C; Sar = CNCC(=O)O

Test system: L1210 leukemia ip in BDF1 mice, survival T/C
Assay: NCI In Vivo Anticancer Drug Screen. Data for tumor model L1210 Leukemia (intraperitoneal) in B6D2F1 (BDF1) mice
Settings: higher = longer survival
Outline: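 Value reflects the ratio of survival in compound-treated mice to survival in vehicle-treated controls, with both groups carrying the same transplanted tumor.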

[1] = endpoint: mean survival time, dose: 100.0 mg/kg/injection, schedule: Q01DX001 (ip), vehicle: carboxymethylcellulose (CMC)
[2] = endpoint: mean survival time, dose: 200.0 mg/kg/injection, schedule: Q01DX001 (ip), vehicle: carboxymethylcellulose (CMC)
[3] = endpoint: mean survival time, dose: 400.0 mg/kg/injection, schedule: Q01DX001 (ip), vehicle: carboxymethylcellulose (CMC)
[4] = endpoint: mean survival time, dose: 100.0 mg/kg/injection, schedule: Q01DX009 (ip), vehicle: saline with Tween-80
[5] = endpoint: mean survival time, dose: 100.0 mg/kg/injection, schedule: Q04DX003 (ip), vehicle: saline with Tween-80
[6] = endpoint: mean survival time, dose: 100.0 mg/kg/injection, schedule: Q04DX002 (ip), vehicle: Klucel (hydroxypropylcellulose) (HPC)
[7] = endpoint: mean survival time, dose: 200.0 mg/kg/injection, schedule: Q04DX002 (ip), vehicle: Klucel (hydroxypropylcellulose) (HPC)
[8] = endpoint: mean survival time, dose: 400.0 mg/kg/injection, schedule: Q04DX002 (ip), vehicle: Klucel (hydroxypropylcellulose) (HPC)
[9] = endpoint: mean survival time, dose: 200.0 mg/kg/injection, schedule: Q04DX003 (ip), vehicle: saline with Tween-80
[10] = endpoint: mean survival time, dose: 400.0 mg/kg/injection, schedule: Q04DX003 (ip), vehicle: saline with Tween-80
[11] = endpoint: mean survival time, dose: 100.0 mg/kg/injection, schedule: Q04DX003 (ip), vehicle: saline
[12] = endpoint: mean survival time, dose: 200.0 mg/kg/injection, schedule: Q04DX003 (ip), vehicle: saline
[13] = endpoint: mean survival time, dose: 400.0 mg/kg/injection, schedule: Q04DX003 (ip), vehicle: saline

Measured: T/C

CCC(C)C1NC(=O)C(NC(=O)c2c3nc4c(C(=O)NC5C(=O)NC(C(C)CC)C(=O)N6CCCC6C(=O)N(C)CC(=O)N(C)C(C(C)C)C(=O)OC5C)ccc(C)c4oc-3c(C)c(=O)c2N)C(C)OC(=O)C(C(C)C)N(C)C(=O)CN(C)C(=O)C2CCCN2C1=O (centres undefined) (I: TIP[Sar][NMeV] / II: TIP[Sar][NMeV]; ester I:1-I:C, II:1-II:C; linker I:N-II:N via Actinocin(1to9); configuration not given here)
inactive: endpoint: mean survival time, dose: 0.4 mg/kg/injection, schedule: Q01DX009 (ip), vehicle: saline 86 % of control | endpoint: mean survival time, dose: 2.5 micrograms/kg/injection, schedule: Q01DX009 (ip), vehicle: saline 115 % of control | endpoint: mean survival time, dose: 3.1 micrograms/kg/injection, schedule: Q01DX001 (ip), vehicle: saline 106 % of control | endpoint: mean survival time, dose: 6.0 micrograms/kg/injection, schedule: Q01DX009 (ip), vehicle: saline 122 % of control | endpoint: mean survival time, dose: 6.3 micrograms/kg/injection, schedule: Q01DX001 (ip), vehicle: saline 102 % of control | endpoint: mean survival time, dose: 10.0 micrograms/kg/injection, schedule: Q01DX009 (ip), vehicle: saline 118 % of control | endpoint: mean survival time, dose: 12.5 micrograms/kg/injection, schedule: Q01DX001 (ip), vehicle: saline 102 % of control | endpoint: mean survival time, dose: 12.5 micrograms/kg/injection, schedule: Q01DX009 (ip), vehicle: saline 122 % of control | endpoint: mean survival time, dose: 25.0 micrograms/kg/injection, schedule: Q01DX001 (ip), vehicle: saline 114 % of control | endpoint: mean survival time, dose: 50.0 micrograms/kg/injection, schedule: Q01DX001 (ip), vehicle: saline 102 % of control | endpoint: mean survival time, dose: 90.0 micrograms/kg/injection, schedule: Q01DX009 (ip), vehicle: acetone 102 % of control | endpoint: mean survival time, dose: 100.0 micrograms/kg/injection, schedule: Q01DX001 (ip), vehicle: saline 111 % of control | endpoint: mean survival time, dose: 135.0 micrograms/kg/injection, schedule: Q01DX009 (ip), vehicle: acetone 104 % of control | endpoint: mean survival time, dose: 200.0 micrograms/kg/injection, schedule: Q01DX001 (ip), vehicle: saline 117 % of control | endpoint: median survival time, dose: 12.5 micrograms/kg/injection, schedule: Q01DX009 (ip), vehicle: water 113 % of control | endpoint: median survival time, dose: 25.0 micrograms/kg/injection, schedule: Q01DX009 (ip), vehicle: water 117 % of control | endpoint: median survival time, dose: 75.0 micrograms/kg/injection, schedule: Q04DX003 (ip), vehicle: water 122 % of control | endpoint: median survival time, dose: 200.0 micrograms/kg/injection, schedule: Q01DX001 (ip), vehicle: water 118 % of control
active: endpoint: mean survival time, dose: 0.1 mg/kg/injection, schedule: Q01DX009 (ip), vehicle: saline 170 % of control | endpoint: mean survival time, dose: 50.0 micrograms/kg/injection, schedule: Q01DX009 (ip), vehicle: saline 150 % of control | endpoint: mean survival time, dose: 59.4 micrograms/kg/injection, schedule: Q01DX009 (ip), vehicle: acetone 160 % of control | endpoint: median survival time, dose: 600.0 micrograms/kg/injection, schedule: Q04DX003 (ip), vehicle: water 150 % of control

CC(S)c1ccc2c(c1)Cc1ccccc1-2 (centres undefined)
inactive: [1] 101 % of control | [2] 101 % of control | [3] 104 % of control

CCN(CCS)Cc1ccccc1
inactive: endpoint: mean survival time, dose: 25.0 mg/kg/injection, schedule: Q01DX009 (ip), vehicle: saline with Tween-80 95 % of control | endpoint: mean survival time, dose: 25.0 mg/kg/injection, schedule: Q04DX003 (ip), vehicle: saline with Tween-80 94 % of control | endpoint: mean survival time, dose: 50.0 mg/kg/injection, schedule: Q01DX009 (ip), vehicle: saline with Tween-80 97 % of control | endpoint: mean survival time, dose: 50.0 mg/kg/injection, schedule: Q04DX003 (ip), vehicle: saline with Tween-80 91 % of control | [4] 95 % of control | [5] 91 % of control

CS(=O)(=O)OCC1OC(c2ccccc2)OC(C(CBr)OS(C)(=O)=O)C1OS(C)(=O)=O (centres undefined)
inactive: [6] 97 % of control | [7] 93 % of control | [8] 93 % of control

CC(C)=NNC(=O)C1CC=CC1C(Cl)Cl (centres undefined)
inactive: endpoint: mean survival time, dose: 100.0 mg/kg/injection, schedule: Q01DX009 (ip), vehicle: Klucel (hydroxypropylcellulose) (HPC) 96 % of control | endpoint: mean survival time, dose: 200.0 mg/kg/injection, schedule: Q01DX009 (ip), vehicle: Klucel (hydroxypropylcellulose) (HPC) 98 % of control | endpoint: mean survival time, dose: 400.0 mg/kg/injection, schedule: Q01DX009 (ip), vehicle: Klucel (hydroxypropylcellulose) (HPC) 93 % of control

Oc1ccc(/C=N/Nc2nc3ccccc3s2)c(O)c1
inactive: endpoint: mean survival time, dose: 222.0 mg/kg/injection, schedule: Q01DX Z (ip), vehicle: methylcellulose (MC) 88 % of control | endpoint: mean survival time, dose: 333.0 mg/kg/injection, schedule: Q01DX Z (ip), vehicle: methylcellulose (MC) 91 % of control | endpoint: mean survival time, dose: 500.0 mg/kg/injection, schedule: Q01DX Z (ip), vehicle: methylcellulose (MC) 94 % of control

COc1cccc(NC(=O)c2cccc([N+](=O)[O-])c2)c1
inactive: [6] 94 % of control | [7] 98 % of control | [8] 91 % of control

CC(C)=CCCC(C)C/C=N\O (centres undefined)
inactive: [4] 101 % of control | [5] 100 % of control | endpoint: mean survival time, dose: 200.0 mg/kg/injection, schedule: Q01DX009 (ip), vehicle: saline with Tween-80 104 % of control | [9] 103 % of control | [10] 106 % of control

CCCCCCCCCCCCC(C)(OO)C(=O)OC (centres undefined)
inactive: endpoint: mean survival time, dose: 15.0 mg/kg/injection, schedule: Q04DX002 (ip), vehicle: saline with Tween-80 100 % of control | endpoint: mean survival time, dose: 30.0 mg/kg/injection, schedule: Q04DX002 (ip), vehicle: saline with Tween-80 91 % of control | endpoint: mean survival time, dose: 160.0 mg/kg/injection, schedule: Q04DX002 (ip), vehicle: saline with Tween-80 95 % of control

CCCCCCCCCCCCCCCCSc1ccc(Br)cc1
inactive: [5] 92 % of control | [9] 102 % of control | [10] 97 % of control

COc1ccc(/C=C/c2cc[n+](C)cc2)cc1OC
inactive: endpoint: mean survival time, dose: 75.0 mg/kg/injection, schedule: Q01DX001 (ip), vehicle: carboxymethylcellulose (CMC) 111 % of control | endpoint: mean survival time, dose: 150.0 mg/kg/injection, schedule: Q01DX001 (ip), vehicle: carboxymethylcellulose (CMC) 109 % of control | endpoint: mean survival time, dose: 300.0 mg/kg/injection, schedule: Q01DX001 (ip), vehicle: carboxymethylcellulose (CMC) 103 % of control

CCC(Cl)COP(=O)(CC(Cl)CC)O/C(C)=C(\C)OP(=O)(OCC(Cl)CC)OCC(Cl)CC (centres undefined)
inactive: endpoint: mean survival time, dose: 25.0 mg/kg/injection, schedule: Q04DX002 (sc), vehicle: olive oil, sesame oil, peanut oil 104 % of control | endpoint: mean survival time, dose: 50.0 mg/kg/injection, schedule: Q04DX002 (sc), vehicle: olive oil, sesame oil, peanut oil 93 % of control | endpoint: mean survival time, dose: 100.0 mg/kg/injection, schedule: Q04DX002 (sc), vehicle: olive oil, sesame oil, peanut oil 107 % of control

C1CCC(=[N+]2CCCC2)CC1
inactive: endpoint: mean survival time, dose: 100.0 mg/kg/injection, schedule: Q01DX009 (ip), vehicle: saline 93 % of control | [11] 106 % of control | endpoint: mean survival time, dose: 200.0 mg/kg/injection, schedule: Q01DX009 (ip), vehicle: saline 101 % of control | [12] 104 % of control | endpoint: mean survival time, dose: 400.0 mg/kg/injection, schedule: Q01DX009 (ip), vehicle: saline 88 % of control | [13] 102 % of control

CCc1c(C/C(=N/O)C(=O)O)[nH]c(=S)[nH]c1=O
inactive: [5] 97 % of control | [9] 97 % of control | [10] 96 % of control

COc1ccc(/C=C/C(=O)c2ccccc2)cc1Br
inactive: [5] 100 % of control | [9] 96 % of control | [10] 96 % of control

C1=CCNCC1
inactive: endpoint: mean survival time, dose: 100.0 mg/kg/injection, schedule: Q01DX001 (ip), vehicle: saline 101 % of control | endpoint: mean survival time, dose: 200.0 mg/kg/injection, schedule: Q01DX001 (ip), vehicle: saline 98 % of control | endpoint: mean survival time, dose: 400.0 mg/kg/injection, schedule: Q01DX001 (ip), vehicle: saline 103 % of control

Cc1c(N)c(C)c([N+](=O)[O-])c(C)c1N
inactive: [5] 91 % of control | [9] 98 % of control | [10] 98 % of control

OC1(C2(O)c3ccccc3Oc3ccccc32)c2ccccc2Oc2ccccc21
inactive: [11] 95 % of control | [12] 95 % of control | [13] 97 % of control

CSc1ccc(OC(=O)Oc2ccc(SC)c(C)c2)cc1C
inactive: [1] 92 % of control | [2] 92 % of control | [3] 97 % of control
